{"source": "patent EP0388528B1", "about": "“Carboximidamide derivatives” (KIRIN BEER KABUSHIKI KAISHA, priority 1988, dated 1990)", "key": {"[1]": {"test_system": "spontaneous hypertensive rats (SHR)", "test": "Hypotensive effect on spontaneous hypertensive rats (intravenously) (Referential Example 1)-3)", "type": "in vivo", "settings": "Rattus norvegicus, iv, anesthetized SHR, dose descending mean blood pressure by 20%; read-out: ED₂₀ (mg/kg, i.v.)", "experimental": "Rats were anesthetized with urethane-α-chloralose (1 g/kg - 25 mg/kg; intraperitoneally). Mean blood pressure was measured by a pressure transducer through a cannula inserted into the carotid artery. The compound was cumulatively administered every 30 minutes through the cannula inserted into the jagular vein. The change in blood pressure was expressed as percent of the blood pressure before the administration of the compound. And the ED₂₀ value, which was the dose required for descending blood pressure to an extent of 20%, was calculated from the dose-response curve."}, "[2]": {"test_system": "isolated rat heart", "test": "Effect on isolated rat heart (Langendorff's method)", "settings": "1 × 10⁻⁸ mol/min, mean ± S.D.", "experimental": "The effect of the compound of the present invention on heart of rats was examined by using the Langendorff's method [test compound: N-cyano-N′-(2-nitroxyethyl)-3-pyridinecarboximidamide (compound (13))]. Hearts were excised from male rats (weighing 250-350 g) and perfused at 80 cmH₂O in a Langendorff fashion. Krebs-Hensaleit bicarbonate solution (pH 7.4, 37°C) containing an 11 mM glucose which was oxygenated with 95% O₂- 5% CO₂ gas mixture was used as a perfusate. The left ventricular pressure was recorded by inserting a latex baloon into the left ventricle, and heart rate was determined from the pulse of it. Coronary perfusate flow was also measured with an electromagnetic flowmeter. The experiments were carried out by perfusing a perfusate containing the compound (13) for 10 minutes after an initial equilibration period for 30 minutes. As the control compound, nicorandil which has an effect opening potassium channel and is similar to the test compound in structure was used. The changes in the coronary perfusate flow and the cardiac function (heart rate × left ventricular pressure) caused by these compounds were expressed as percent changes from the preperfusion values of the compound (13) or nicorandil."}, "[3]": {"test_system": "beagles", "test": "Hemodynamic profile in beagles (intraduodenally)", "type": "in vivo", "settings": "intraduodenal 100 µg/kg, percent change from pretreatment; for Total Peripheral Resistance: mean aortic blood pressure / (coronary + aortic blood flow)", "experimental": "The aortic blood pressure, the heart rate and the coronary blood flow of the beagles anesthetized with pentobarbital were determined in the same manner as in the aforementioned Example 1)-7, and the aortic blood flow was measured with an electromagnetic flowmeter (MFV-3100, manufactured by Nihon Kohden) by attaching a probe at the origin of the aorta [test compound: N-cyano-N′-(2-nitroxyethyl)-3-pyridinecarboximidamide (compound (13))]. A nelaton's tube was inserted into the duodenum via a small abdominal incision for administration of the compound (13) (100 µg/kg). Time course changes in respective measurement items were expressed as percent changes from the pretreatment values. Total peripheral resistance was calculated by dividing the mean aortic blood pressure with the sum of the coronary blood flow and the aortic blood flow."}, "[4]": {"test_system": "isolated heart of rats", "test": "Myocardiac injury induced by re-perfusion after ischemia (isolated heart of rats)", "settings": "1×10⁻⁷ mole/min, after 30 minutes re-perfusion, mean ± SD", "experimental": "The cardiac muscle protecting effect of the compound of the present invention was tested by using the isolated heart of rats [test compound: N-cyano-N′-(2-nitroxyethyl)-3-pyridinecarboximidamide (compound (13))]. The Langendorff's method was used in the same manner as in the aforementioned Referential Example 1)-6. The isolated heart was perfused with a perfusate for 30 minutes and then with a perfusate containing the test compound for 10 minutes, and perfusion was stopped so that the heart was in the so-called \"ischemic state\". Pacing was performed during the ischemia. […] Parameters of cardiac function after the onset of re-perfusion was monitored for 30 minutes, and the heart was quickly freezed. The amount of ATP in the heart muscle was extracted with perchloric acid and determined by HPLC. Nicorandil was used as a control.\nThe recovery rate of the cardiac function (heart rate × left ventricular pressure) after onset of reperfusion was calculated based on the cardiac function prior to the perfusion of the compound (13) and nicorandil as 100%. The amount of ATP in the heart muscle was also determined."}, "[5]": {"test_system": "male ddY mice", "test": "Effect on hypoxia (survival time in mice)", "type": "in vivo", "experimental": "The effect of the compound of the present invention [test compound: N-cyano-N′-(2-nitroxyethyl)-3-pyridinecarboximidamide (compound (13))] on hypoxia was examined in male ddY mice (4 week old). Mice were exposed to a gas mixture of 96% N₂ - 4% O₂ that was streamed in a flow rate of 5 ℓ/min.\nThe time from the onset of the gas stream till the stop of respiration [survival time (sec)] was measured.\nThe test compound was orally administered in the dosage form of a 2% suspension in gum arabic 30 minutes before the onset of the gas streaming. The control group was administered a gum arabic suspension only."}, "[6]": {"test": "Acute toxicity (oral administration)", "settings": "mouse, in vivo, male ddY mice, read-out: LD₅₀", "experimental": "Using male ddY mice (4 week old), acute toxicity on the oral administration of the compound of the present invention was examined [test compound: N-cyano-N′-(2-nitroxyethyl)-3-pyridinecarboximidamide (compound (13))]. As a result, LD₅₀ was about 400 mg/kg."}}, "data": [{"smiles": "N#CNC(=NCCO[N+](=O)[O-])c1cccnc1", "note": "[Compound (13), N-cyano-N'-(2-nitroxyethyl)-3-pyridinecarboximidamide]", "values": [{"measurement": "ED20", "setting": "[1]", "value": 0.01, "unit": "mg/kg"}, {"measurement": "Coronary Perfusate Flow (% change)", "setting": "[2]; perfusion 10 minutes", "value": "51.3±3.2", "unit": "% change"}, {"measurement": "Cardiac Function", "setting": "[2]; heart rate × left ventricular pressure, percent change from preperfusion", "value": "13.3±6.5", "unit": "%"}, {"measurement": "Aortic Blood Flow", "setting": "[3]; 1 min after dosage", "value": 10.0, "unit": "%"}, {"measurement": "Coronary Blood Flow", "setting": "[3]; 1 min after dosage", "value": "1.8± 1.8", "unit": "%"}, {"measurement": "Heart Rate", "setting": "[3]; 1 min after dosage", "value": 0, "unit": "%"}, {"measurement": "Mean Aortic Blood Pressure", "setting": "[3]; 1 min after dosage", "value": "-9.8± 1.0", "unit": "%"}, {"measurement": "Total Peripheral Resistance", "setting": "[3]; 1 min after dosage", "value": -17.8, "unit": "%"}, {"measurement": "Aortic Blood Flow", "setting": "[3]; 2 min after dosage", "value": 12.2, "unit": "%"}, {"measurement": "Coronary Blood Flow", "setting": "[3]; 2 min after dosage", "value": "14.4± 2.1", "unit": "%"}, {"measurement": "Heart Rate", "setting": "[3]; 2 min after dosage", "value": "1.6± 1.6", "unit": "%"}, {"measurement": "Mean Aortic Blood Pressure", "setting": "[3]; 2 min after dosage", "value": "-14.3± 1.3", "unit": "%"}, {"measurement": "Total Peripheral Resistance", "setting": "[3]; 2 min after dosage", "value": -24.1, "unit": "%"}, {"measurement": "Aortic Blood Flow", "setting": "[3]; 3 min after dosage", "value": 15.1, "unit": "%"}, {"measurement": "Coronary Blood Flow", "setting": "[3]; 3 min after dosage", "value": "38.4± 9.1", "unit": "%"}, {"measurement": "Heart Rate", "setting": "[3]; 3 min after dosage", "value": 0, "unit": "%"}, {"measurement": "Mean Aortic Blood Pressure", "setting": "[3]; 3 min after dosage", "value": "-21.2± 1.2", "unit": "%"}, {"measurement": "Total Peripheral Resistance", "setting": "[3]; 3 min after dosage", "value": -33.7, "unit": "%"}, {"measurement": "Aortic Blood Flow", "setting": "[3]; 5 min after dosage", "value": 27.0, "unit": "%"}, {"measurement": "Coronary Blood Flow", "setting": "[3]; 5 min after dosage", "value": "121.5± 22.0", "unit": "%"}, {"measurement": "Heart Rate", "setting": "[3]; 5 min after dosage", "value": "-12.1± 5.1", "unit": "%"}, {"measurement": "Mean Aortic Blood Pressure", "setting": "[3]; 5 min after dosage", "value": "-35.0± 2.0", "unit": "%"}, {"measurement": "Total Peripheral Resistance", "setting": "[3]; 5 min after dosage", "value": -49.5, "unit": "%"}, {"measurement": "Aortic Blood Flow", "setting": "[3]; 7.5 min after dosage", "value": 25.5, "unit": "%"}, {"measurement": "Coronary Blood Flow", "setting": "[3]; 7.5 min after dosage", "value": "142.3± 6.5", "unit": "%"}, {"measurement": "Heart Rate", "setting": "[3]; 7.5 min after dosage", "value": "-17.5± 4.1", "unit": "%"}, {"measurement": "Mean Aortic Blood Pressure", "setting": "[3]; 7.5 min after dosage", "value": "-37.0± 2.9", "unit": "%"}, {"measurement": "Total Peripheral Resistance", "setting": "[3]; 7.5 min after dosage", "value": -50.3, "unit": "%"}, {"measurement": "Aortic Blood Flow", "setting": "[3]; 10 min after dosage", "value": 15.0, "unit": "%"}, {"measurement": "Coronary Blood Flow", "setting": "[3]; 10 min after dosage", "value": "112.8± 10.6", "unit": "%"}, {"measurement": "Heart Rate", "setting": "[3]; 10 min after dosage", "value": "-21.1± 4.4", "unit": "%"}, {"measurement": "Mean Aortic Blood Pressure", "setting": "[3]; 10 min after dosage", "value": "-42.0± 2.9", "unit": "%"}, {"measurement": "Total Peripheral Resistance", "setting": "[3]; 10 min after dosage", "value": -51.1, "unit": "%"}, {"measurement": "Aortic Blood Flow", "setting": "[3]; 20 min after dosage", "value": 10.7, "unit": "%"}, {"measurement": "Coronary Blood Flow", "setting": "[3]; 20 min after dosage", "value": "64.2± 15.4", "unit": "%"}, {"measurement": "Heart Rate", "setting": "[3]; 20 min after dosage", "value": "-26.1± 5.5", "unit": "%"}, {"measurement": "Mean Aortic Blood Pressure", "setting": "[3]; 20 min after dosage", "value": "-49.4± 3.1", "unit": "%"}, {"measurement": "Total Peripheral Resistance", "setting": "[3]; 20 min after dosage", "value": -55.3, "unit": "%"}, {"measurement": "Aortic Blood Flow", "setting": "[3]; 30 min after dosage", "value": 8.3, "unit": "%"}, {"measurement": "Coronary Blood Flow", "setting": "[3]; 30 min after dosage", "value": "60.1± 15.1", "unit": "%"}, {"measurement": "Heart Rate", "setting": "[3]; 30 min after dosage", "value": "-26.5± 4.6", "unit": "%"}, {"measurement": "Mean Aortic Blood Pressure", "setting": "[3]; 30 min after dosage", "value": "-49.0± 3.7", "unit": "%"}, {"measurement": "Total Peripheral Resistance", "setting": "[3]; 30 min after dosage", "value": -55.8, "unit": "%"}, {"measurement": "Aortic Blood Flow", "setting": "[3]; 60 min after dosage", "value": 0.5, "unit": "%"}, {"measurement": "Coronary Blood Flow", "setting": "[3]; 60 min after dosage", "value": "28.0± 11.6", "unit": "%"}, {"measurement": "Heart Rate", "setting": "[3]; 60 min after dosage", "value": "-10.0± 1.4", "unit": "%"}, {"measurement": "Mean Aortic Blood Pressure", "setting": "[3]; 60 min after dosage", "value": "-36.5± 7.3", "unit": "%"}, {"measurement": "Total Peripheral Resistance", "setting": "[3]; 60 min after dosage", "value": -44.3, "unit": "%"}, {"measurement": "Amount of ATP in the heart muscle (µmole/g of dry weight)", "setting": "[4]", "value": "11.12±1.12(6) µmole/g of dry weight"}, {"measurement": "Survival Time (sec) mean ± S.E.M.", "setting": "[5]; 0.3 mg/kg orally 30 minutes before 96% N₂ - 4% O₂", "value": "130.27 ± 9.32", "unit": "s"}, {"measurement": "Survival Time (sec) mean ± S.E.M.", "setting": "[5]; 1.0 mg/kg orally 30 minutes before 96% N₂ - 4% O₂", "value": "201.00 ± 13.40", "unit": "s"}, {"measurement": "Survival Time (sec) mean ± S.E.M.", "setting": "[5]; 3.0 mg/kg orally 30 minutes before 96% N₂ - 4% O₂", "value": "523.15 ± 48.57", "unit": "s"}, {"measurement": "LD50", "setting": "[6]", "value": "~400", "unit": "mg/kg"}]}]}
